{"source": "paper PMC5306082", "about": "“Physiologically based kinetic modeling of the bioactivation of myristicin” (Archives of Toxicology, 2016)", "key": {"[1]": {"assay": "Microsomal conversion of myristicin, human liver microsomes", "type": "in vitro ADME", "procedure": "First, it was determined which organs are involved in the biotransformation of myristicin in rat and human. For this purpose, liver, kidney, lung, and small intestine microsomes from male Sprague–Dawley rat and pooled gender human were used. Incubations were performed by adding myristicin to incubation mixtures containing 1 mg/mL of the microsomal protein preparations and 3 mM NADPH in 0.2 M Tris–HCl (pH 7.4). After 1 min of pre-incubation at 37 °C, myristicin (final concentration, 1000 μM) was added from a 100 times concentrated stock solution in DMSO so that the final DMSO content was 1 % (v/v). Incubations were carried out for 30 min after which the reactions were terminated by adding 25 µl (0.25 times the incubation volume) of ice-cold ACN. Samples were centrifuged for 5 min at 13,000×g, and the supernatant was stored at −20 °C until UPLC analysis. As metabolism of myristicin was observed only in incubations with liver microsomes for male rats and pooled gender human, the determination of kinetic constants for the formation of microsomal metabolites was performed only for the liver fractions. Incubations to determine kinetic constants were performed following the conditions described above using final concentrations of myristicin from 25 to 1000 μM for rat and human liver. In all incubations, the final concentration of DMSO, in which myristicin was dissolved, was kept at 1 % (v/v). The formation of different microsomal metabolites was linear with time and microsomal protein concentration under the conditions described. Blank incubations were performed in the absence of the cofactor NADPH. All incubations were performed in triplicate.\nSecondary metabolism of the relevant 1′-hydroxy metabolite of myristicin was taken into account by determining the kinetic constants for its conversion in (a) glucuronidation, (b) sulfation, and (c) oxidation, again under conditions that allowed adequate definition of kinetic constants and with <10 % substrate conversion. Incubation samples were subjected to UPLC analysis that was performed as described previously (Punt et al. [2008]). Identification was achieved by comparing the UV spectra of the formed metabolites to the spectra of the synthesized 1′-hydroxymyristicin and 1′-oxomyristicin reference standards. Quantification of all formed metabolites was done by comparing the peak areas to those of calibration curves of the corresponding reference compounds, determined using UPLC with photodiode array detection (UPLC-PDA). The UPLC system was composed of a Waters (Waters, Milford, MA) Acquity solvent manager, sample manager, and photodiode array detector, equipped with Water Acquity UPLC BEH C18 column.\nThe gradient for analysis of microsomal metabolites was performed with 100 % ACN and ultrapure water containing 0.1 % (v/v) TFA. The flow rate was 0.6 ml/min. The gradient started at 10 % ACN, increased to 50 % ACN over 4 min, increased to 80 % over 0.5 min, followed by decrease to 10 % ACN over 0.5 min, and finally kept at 10 % for 1 min."}, "[2]": {"assay": "Sulfonation of 1′-hydroxymyristicin, human liver S9", "type": "in vitro ADME", "details": "S9 protein yield 143 mg/g liver", "procedure": "The formation of 1′-sulfoxymyristicin was determined using incubations containing male rat liver Sprague–Dawley or pooled gender human liver S9 proteins, PAPS as a cofactor, and GSH, which acts as a scavenger of the reactive carbocation formed due to the unstable nature of the 1′-sulfoxy metabolite in an aqueous environment (van den Berg et al. [2012]; Martati et al. [2011]; Al-Subeihi et al. [2011]). Incubation mixtures containing (final concentrations) 10 mM of GSH, 0.2 mM of PAPS, and 3 mg/ml of S9 proteins in 0.1 M potassium phosphate (pH 8.2) were pre-incubated for 1 min at 37 °C. After the pre-incubation, 1′-hydroxymyristicin dissolved in DMSO was added in final concentrations ranging between 10 and 6000 μM while keeping the final content of DMSO at 1 % (v/v). The reaction was terminated after 360 min of incubation by adding 25 μl (0.25 times the incubation volume) of ice-cold ACN. The formation of the GSH conjugate of 1′-sulfoxymyristicin was linear with time and S9 protein concentrations under the experimental conditions used. Blank incubations were performed in the absence of PAPS. Incubations were performed in triplicate. All samples were centrifuged for 5 min at 16,000×g, and the supernatant was stored at −20 °C until ultra-performance liquid chromatography (UPLC) analysis.\nQuantification of 1′-sulfoxymyristicin was done using UPLC analysis as described for the estimation of 1′-sulfoxysafrole (Martati et al. [2011]). […] The gradient for analysis of the metabolite consisted of a mixture of ACN and ultrapure water containing 0.1 % (v/v) TFA. The flow rate was 0.6 ml/min, starting at 0 % ACN and increasing the percentage of ACN to 20 % over 0.2 min, followed by an increase to 30 % ACN over 4.3 min, then increasing to 100 % over 0.3 min, and keeping it at 100 % for 0.2 min, and finally decreasing to 0 % over 0.2 min and keeping it at 0 % for 0.8 min. Separation and purification of the GSH adduct of 1′-sulfoxymyristicin was performed by collecting the peak of the metabolite from the UPLC column. […]"}}}
{"smiles": "C=CC(O)c1cc(OC)c2c(c1)OCO2", "note": "(centres unmarked) [1′-Hydroxymyristicin, 1′-hydroxymyristicin]", "values": [{"measurement": "Vmax", "setting": "[1]; formation of the metabolite from myristicin, NADPH, mean of three ± SD", "result": "0.17 ± 0.03 nmol min^−1 (mg microsomal or S9 protein)^−1"}, {"measurement": "In vitro catalytic efficiency", "setting": "[1]; formation of the metabolite from myristicin, Vmax/Km × 1000", "result": "0.726 μl min^−1 (mg microsomal or S9 protein)^−1"}, {"measurement": "Scaled Vmax, in vivo", "setting": "[1]; from myristicin, microsomal protein yield 32 mg/g liver", "result": 0.326, "unit": "μmol/h/g tissue"}, {"measurement": "In vivo catalytic efficiency", "setting": "[1]; from myristicin, scaled Vmax/Km", "result": 0.0014, "unit": "ml/h/g tissue"}, {"measurement": "k Scaled", "setting": "[2]", "result": 0.14, "unit": "ml/hr/g tissue"}]}
